A short description of data set [1]: Solubility in solvents. It is filed as physicochemical. From the text:
(h) Solubility in solvents:

Data set [2] can be described thus: Titration (in water). In kind it is physicochemical.
The subject of data set [3] is E. coli NIHJ. Briefly: Antimicrobial spectrum, agar-dilution method. It is filed as cell-based.
Data set [4] deals with E. coli NIHJ SMf. The data set can be described thus: Antimicrobial spectrum, agar-dilution method. It is filed as cell-based.
In data set [5] the test system is E. coli NIHJ STf. Briefly: Antimicrobial spectrum, agar-dilution method. In kind it is cell-based.
The subject of data set [6] is E. coli K-12 ML1630. Briefly: Antimicrobial spectrum, agar-dilution method. It is filed as cell-based. Particulars: E. coli K-12 ML1630, agar-dilution.
The subject of data set [7] is E. coli CF17. The data set can be described thus: Antimicrobial spectrum, agar-dilution method. In kind it is cell-based.
The subject of data set [8] is E. coli CF41. Briefly: Antimicrobial spectrum, agar-dilution method. It is filed as cell-based.
Data set [9] relates to Salmonella typhimurium IFO12529. The data set can be described thus: Antimicrobial spectrum, agar-dilution method. It is filed as cell-based.
Data set [10] has as its system Citrobacter. Briefly: Antimicrobial spectrum, agar-dilution method. In kind it is cell-based.
Data set [11] relates to Shigella flexneri. The data set can be described thus: Antimicrobial spectrum, agar-dilution method. In kind it is cell-based.
Data set [12] concerns Klebsiella pneumoniae PCI602. Briefly: Antimicrobial spectrum, agar-dilution method. In kind it is cell-based.
Data set [13] has as its system Pseudomonas aeruginosa IFO12689. Briefly: Antimicrobial spectrum, agar-dilution method. It is filed as cell-based.
In data set [14] the test system is Pseudomonas aeruginosa A3. Briefly: Antimicrobial spectrum, agar-dilution method. In kind it is cell-based.
The subject of data set [15] is Pseudomonas aeruginosa P2. The data set can be described thus: Antimicrobial spectrum, agar-dilution method. In kind it is cell-based.
The subject of data set [16] is Proteus vulgaris OX19 ATCC6898. The data set can be described thus: Antimicrobial spectrum, agar-dilution method. In kind it is cell-based.
In data set [17] the test system is Bordetella bronchiseptica Aichi 202. Briefly: Antimicrobial spectrum, agar-dilution method. It is filed as cell-based. Conditions: Bordetella bronchiseptica Aichi 202, agar-dilution.
Data set [18] has as its system Proteus rettgeri. Briefly: Antimicrobial spectrum, agar-dilution method. In kind it is cell-based.
Data set [19] concerns Serratia marcescens IFO12648. The data set can be described thus: Antimicrobial spectrum, agar-dilution method. In kind it is cell-based.
For data set [20], the system named is Staphylococcus aureus FDA209P. Briefly: Antimicrobial spectrum, agar-dilution method. It is filed as cell-based.
The subject of data set [21] is Staphylococcus aureus MS3937. Briefly: Antimicrobial spectrum, agar-dilution method. In kind it is cell-based.
The test system of data set [22] is Staphylococcus aureus MS9261. The data set can be described thus: Antimicrobial spectrum, agar-dilution method. It is filed as cell-based.
The test system of data set [23] is Staphylococcus aureus Smith. Briefly: Antimicrobial spectrum, agar-dilution method. It is filed as cell-based.
Data set [24] deals with Bacillus subtilis PCI 219. Briefly: Antimicrobial spectrum, agar-dilution method. In kind it is cell-based. Conditions: Bacillus subtilis PCI 219, agar-dilution.
Data set [25] concerns Sarcina lutea ATCC 9341. The data set can be described thus: Antimicrobial spectrum, agar-dilution method. In kind it is cell-based. Particulars: Sarcina lutea ATCC 9341, agar-dilution.
The subject of data set [26] is Candida albicans Yu1200. The data set can be described thus: Antimicrobial spectrum, agar-dilution method. In kind it is cell-based.
Data set [27] deals with Mycobacterium smegmatis ATCC607. Briefly: Antimicrobial spectrum, agar-dilution method. It is filed as cell-based.
In data set [28] the target is T1, porcine pancreatic α-amylase (Sus scrofa, UniProt P00690).
T1 sequence (P00690 16-511): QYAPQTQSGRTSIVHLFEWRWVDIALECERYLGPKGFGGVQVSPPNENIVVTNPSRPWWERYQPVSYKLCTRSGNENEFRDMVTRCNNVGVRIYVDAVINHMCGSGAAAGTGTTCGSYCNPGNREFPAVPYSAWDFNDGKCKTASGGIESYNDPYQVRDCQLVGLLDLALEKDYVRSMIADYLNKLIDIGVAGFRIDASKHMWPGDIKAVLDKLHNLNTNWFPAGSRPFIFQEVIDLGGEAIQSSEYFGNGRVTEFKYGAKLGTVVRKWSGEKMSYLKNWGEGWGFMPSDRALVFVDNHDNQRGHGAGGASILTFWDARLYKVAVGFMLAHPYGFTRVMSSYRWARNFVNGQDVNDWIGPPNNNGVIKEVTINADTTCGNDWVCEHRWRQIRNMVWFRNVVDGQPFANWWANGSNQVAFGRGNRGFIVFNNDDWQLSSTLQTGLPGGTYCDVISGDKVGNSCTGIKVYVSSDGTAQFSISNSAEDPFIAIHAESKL
Briefly: Porcine pancreatic α-amylase inhibitory activity (Bernfeld assay). Conditions: IU = amount giving 50% inhibition of 2 units porcine pancreatic α-amylase, pH 6.9, 37° C. In kind it is biochemical. On the procedure: 2 units* of porcine pancreatic α-amylase in 0.1 ml of 6.4 mM ammonium sulfate solution are added to 0.6 ml of 20 mM phosphate buffer (pH 6.9) containing 10 mM sodium chloride and different amounts of Trestatin. The mixture, after equilibration at 37° C. for 5 min. followed by the addition of 0.5 ml of 4% soluble starch solution, is incubated for 5 min. at 37° C. The reaction is terminated by the addition of 2 ml of dinitrosalicylic acid reagent prepared according to the method of P. Bernfeld. The mixture is heated on a boiling water bath for 5 min. and then diluted with 10 ml of water. Absorbance (A1) of the resulting colored solution is measured at 540 nm, and the inhibition of α-amylase activity can be calculated from the following equation: [formula] A0; absorbance without enzyme A2; absorbance without Trestatin
*1 unit of the α-amylase is the amount of enzyme which catalyzes under the above conditions without Trestatin the formation of reducing sugars equivalent to 1 μmol of maltose.
Each of said inhibitory activities was determined by the method mentioned above.

Data set [29] relates to hyperglycemia induced by cooked rice starch. Briefly: Inhibition of hyperglycemia induced by cooked rice starch, rats. In kind it is in vivo. Conditions: p.o., dose causing after 20 minutes a 20 percent decrease of hyperglycemia, 2 g/kg cooked rice starch. Here is the method: (§1) **ED20 is defined as the dose causing after 20 minutes a 20 percent
(§2) decrease of hyperglycemia induced by oral administration of 2 g/kg body
(§3) weight cooked rice starch.

The test system is the same in data set [30]. The data set can be described thus: Inhibition of hyperglycemia induced by cooked rice starch, mice. Conditions: p.o., dose causing after 20 minutes a 20 percent decrease of hyperglycemia, 2 g/kg cooked rice starch. It is filed as in vivo. On the procedure:
as §1, §2, §3

Data set [31] deals with hyperglycemia (hyperinsulinemia) following an oral load of native starch. The data set can be described thus: Hyperglycemia (hyperinsulinemia) following an oral load of native starch. In kind it is in vivo. Conditions: 20 min. after wheat starch.
Experimental: (§4) [Plasma Glucose and insulin 20 min. after carbohydrate ± Trestatin (1.
g wheat starch/kg or 3.2 g sucrose/kg)]
The test system of data set [32] is hyperglycemia following an oral load of sucrose. Briefly: Hyperglycemia following an oral load of sucrose. It is filed as in vivo. Particulars: dose/kg 30.0 mg; 20 min. after 3.2 g sucrose/kg.
Experimental: as §4
g wheat starch/kg or 3.2 g sucrose/kg)]
The subject of data set [33] is Salmonella paratyphi B. Particulars: agar-dilution.
In data set [34] the test system is rats. Briefly: Acute toxicity, oral, rats. Conditions: 500 mg/kg administered to rats orally (65-700 times the effective dosage).

The values below come from patent US4273765A, “Amino sugar derivatives containing trehalose” (Hoffmann-La Roche Inc., priority 1978, dated 1981).

Where only a bound is given, the exact number is not on record here.

As for `C[C@H]1O[C@H](O[C@@H]2[C@H](O)[C@H](O)[C@@H](O[C@@H]3[C@H](O)[C@@H](O)[C@@H](O[C@@H]4[C@H](O)[C@H](O)[C@@H](O[C@H]5O[C@@H](CO)[C@H](O)[C@H](O)[C@H]5O)O[C@@H]4CO)O[C@@H]3CO)O[C@H]2CO)[C@H](O)[C@@H](O)[C@@H]1N[C@H]1C=C(CO)[C@@H](O[C@H]2O[C@H](CO)[C@H](O[C@H]3O[C@H](C)[C@@H](N[C@H]4C=C(CO)[C@@H](O)[C@H](O)[C@H]4O)[C@H](O)[C@H]3O)[C@H](O)[C@H]2O)[C@H](O)[C@H]1O` (stereo in doubt) [Trestatin A], the Solubility in acetone result in data set [1] is given as “slightly soluble”. The Solubility in chloroform result in data set [1] is on record as “insoluble”. The Solubility in dimethylsulfoxide result in data set [1] is given as “soluble”. Further, the Solubility in ethanol result in data set [1] is reported as “slightly soluble”. The “Solubility in ethyl acetate” value in [1] is “insoluble”. In [1], the Solubility in water result is on record as “easily soluble”. The “pKa'” value in [2] is listed as 5.0. Moreover, the Antimicrobial spectrum in data set [3], in [4], in data set [5], in data set [6], in [7] and in data set [8] was > 100 µg/mL throughout. Further, the Antimicrobial spectrum in [9], in [10], in data set [11], in data set [12], in [13] and in data set [14] was > 100 µg/mL in each case. The Antimicrobial spectrum in data set [15], in [16], in data set [17], in data set [18], in data set [19] and in data set [20] was > 100 µg/mL each time. Moreover, the Antimicrobial spectrum in data set [21], in data set [22], in data set [23], in data set [24], in [25] and in [26] was > 100 µg/mL each time. Moreover, the Antimicrobial spectrum in data set [27] and in [33] was > 100 µg/mL each time. In addition, in data set [28], the Inhibitory activities is listed as 7.1 × 10^7 IU/g. Besides, the “ED20, inhibition of hyperglycemia induced by cooked rice starch” value in data set [29] is 1.0 mg/kg; in data set [30], 1.1 mg/kg. Also, the results for the “Plasma glucose, starch - load” value in data set [31] (dose/kg 0.3 mg), in [31] (dose/kg 1.0 mg) and in data set [31] (dose/kg 3.0 mg) were 68% of carbohydrate primed controls, 56% of carbohydrate primed controls and 55% of carbohydrate primed controls, respectively. The “Plasma insulin, starch - load” value was 66% of carbohydrate primed controls in [31] (dose/kg 0.3 mg), 42% of carbohydrate primed controls in data set [31] (dose/kg 1.0 mg) and 42% of carbohydrate primed controls in [31] (dose/kg 3.0 mg). In addition, the “Plasma glucose, sucrose - load” value in data set [32] is listed as 84% of carbohydrate primed controls. The Acute toxicity result in [34] is on record as “not observed”.

Consider `C[C@H]1O[C@H](O[C@@H]2[C@H](O)[C@@H](O)[C@@H](O[C@@H]3[C@H](O)[C@@H](O)[C@@H](O[C@@H]4[C@H](O)[C@H](O)[C@@H](O[C@H]5O[C@H](CO)[C@H](O)[C@H](O)[C@H]5O)O[C@@H]4CO)O[C@@H]3CO)O[C@H]2CO)[C@@H](O)[C@@H](O)[C@@H]1N[C@@H]1C=C(CO)[C@@H](O)[C@@H](O)[C@@H]1O` (stereo in doubt) [Trestatin B], for which the Solubility in acetone result in data set [1] is “slightly soluble”. The Solubility in chloroform entry in [1] is given as “insoluble”. Besides, the Solubility in dimethylsulfoxide result in data set [1] was “soluble”. Also, the Solubility in ethanol entry in data set [1] was “slightly soluble”. Also, the “Solubility in ethyl acetate” value in data set [1] is “insoluble”. For the same molecule, the Solubility in water result in [1] was “easily soluble”. Besides, in [2], the “pKa'” value is 5.0. The Antimicrobial spectrum in data set [3], in [4], in data set [5], in data set [6], in data set [7] and in data set [8] was > 100 µg/mL throughout. For the same molecule, the Antimicrobial spectrum in data set [9], in data set [10], in data set [11], in [12], in data set [13] and in data set [14] was > 100 µg/mL throughout. Further, the Antimicrobial spectrum in data set [15], in data set [16], in data set [17], in [18], in data set [19] and in data set [20] was > 100 µg/mL in each case. Moreover, the Antimicrobial spectrum in data set [21], in data set [22], in data set [23], in data set [24], in data set [25] and in [26] was > 100 µg/mL in each case. In addition, the Antimicrobial spectrum in data set [27] and in data set [33] was > 100 µg/mL each time. In data set [28], the Inhibitory activities is listed as 1.5 × 10^6 IU/g. Also, the “ED20, inhibition of hyperglycemia induced by cooked rice starch” value in data set [29] was determined as 7.7 mg/kg; in data set [30], 3.2 mg/kg. Also, the Acute toxicity result in [34] is given as “not observed”.

Consider “Trestatin A dihydrochloride [Trestatin A . HCl]”, for which, in [28], the Inhibitory activities is 6.3 × 10^7 IU/g.

Take “Trestatin B monohydrochloride [Trestatin B . HCl]”: the Inhibitory activities in data set [28] is on record as 1.3 × 10^6 IU/g.

On to “Trestatin C trihydrochloride [Trestatin C . HCl]”, for which the Inhibitory activities in [28] was 4.5 × 10^7 IU/g.
